Biological target: human PAD4 (hPAD4) (Homo sapiens (Human), UniProt Q9UM07)
Experiment: RFMS Human PAD4 Functional Assay 1
Format: biochemical
Conditions: RFMS assay 1; 5 nM hPAD4, 250 μM BAEE substrate, 50 μM calcium, 37° C.
Summary of the method: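 Recombinant hPAD4 (5 nM) was preincubated with compound (top 50 μM, 0.5% DMSO) for 30 min at 37 °C, then reacted with 250 μM BAEE for 90 min at 37 °C in pH 7.5 HEPES buffer with 50 μM calcium and 5 μM TPEN. Product was derivatized with phenyl glyoxal and quantified by RapidFire MS.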

Sequence of human PAD4 (hPAD4) (Q9UM07 whole entry): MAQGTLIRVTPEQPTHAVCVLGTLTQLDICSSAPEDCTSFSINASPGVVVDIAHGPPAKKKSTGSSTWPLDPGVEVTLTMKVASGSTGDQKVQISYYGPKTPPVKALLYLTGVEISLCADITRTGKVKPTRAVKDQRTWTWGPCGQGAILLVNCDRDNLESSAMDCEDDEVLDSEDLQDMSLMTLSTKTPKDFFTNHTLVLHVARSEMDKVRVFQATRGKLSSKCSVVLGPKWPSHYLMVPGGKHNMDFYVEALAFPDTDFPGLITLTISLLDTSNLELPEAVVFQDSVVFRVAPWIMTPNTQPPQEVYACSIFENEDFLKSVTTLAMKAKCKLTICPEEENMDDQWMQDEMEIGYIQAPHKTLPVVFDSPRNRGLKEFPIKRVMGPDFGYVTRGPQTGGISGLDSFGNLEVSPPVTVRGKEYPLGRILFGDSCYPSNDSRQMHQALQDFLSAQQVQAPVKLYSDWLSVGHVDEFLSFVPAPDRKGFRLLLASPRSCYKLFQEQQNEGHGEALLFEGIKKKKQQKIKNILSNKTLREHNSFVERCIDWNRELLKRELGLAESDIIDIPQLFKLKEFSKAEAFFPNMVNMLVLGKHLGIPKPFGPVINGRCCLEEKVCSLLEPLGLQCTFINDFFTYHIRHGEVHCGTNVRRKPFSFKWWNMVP

Compound	IC50 [nM]
COc1cc(C(=O)N2C[C@H](N)C[C@@H](F)C2)cn2nc(-c3cc4ccc(-c5ccccc5C(N)=O)cc4n3CC3CC3)c(C)c12 [Example 223, 2-(2-{6-[(3R,5R)-3-Amino-5-fluoropiperidine-1-carbonyl]-4-methoxy-3-methylpyrazolo[1,5-a]pyridin-2-yl}-1-(cyclopropylmethyl)-1H-indol-6-yl)benzamide]	130
COc1cc(C(=O)N2C[C@H](N)C[C@@H](F)C2)cn2nc(-c3cc4ccc(-c5cc(F)c6[nH]c(=O)ccc6c5C)cc4n3CC3CC3)c(C)c12 [Example 225, 6-(2-{6-[(3R,5R)-3-Amino-5-fluoropiperidine-1-carbonyl]-4-methoxy-3-methylpyrazolo[1,5-a]pyridin-2-yl}-1-(cyclopropylmethyl)-1H-indol-6-yl)-8-fluoro-5-methyl-1,2-dihydroquinolin-2-one]	80
COc1cc(C(=O)N2C[C@H](N)C[C@@H](F)C2)cn2nc(-c3cc4ccc(-c5ccc(NC(C)=O)nc5)cc4n3CC3CC3)c(C)c12 [Example 226, N-[5-(2-{6-[(3R,5R)-3-Amino-5-fluoropiperidine-1-carbonyl]-4-methoxy-3-methylpyrazolo[1,5-a]pyridin-2-yl}-1-(cyclopropylmethyl)-1H-indol-6-yl)pyridin-2-yl]acetamide]	50
COc1cc(C(=O)N2CCC[C@@H](N)C2)cn2nc(-c3cc4ccc(-c5cccc(CO)c5)cc4n3CC3CC3)c(C)c12 [Example 227, [3-(2-{6-[(3R)-3-Aminopiperidine-1-carbonyl]-4-methoxy-3-methylpyrazolo[1,5-a]pyridin-2-yl}-1-(cyclopropylmethyl)-1H-indol-6-yl)phenyl]methanol]	950
COc1cc(C(=O)N2CCC[C@@H](N)C2)cn2nc(-c3cc4ccc(-c5ccc(CNC(C)=O)cc5)cc4n3CC3CC3)c(C)c12 [Example 228, N-{[4-(2-{6-[(3R)-3-Aminopiperidine-1-carbonyl]-4-methoxy-3-methylpyrazolo[1,5-a]pyridin-2-yl}-1-(cyclopropylmethyl)-1H-indol-6-yl)phenyl]methyl}acetamide]	930
COc1cc(C(=O)N2CCC[C@@H](N)C2)cn2nc(-c3cc4ccc(-c5ccc(C(=O)N(C)C)cc5)cc4n3CC3CC3)c(C)c12 [Example 230, 4-(2-{6-[(3R)-3-Aminopiperidine-1-carbonyl]-4-methoxy-3-methylpyrazolo[1,5-a]pyridin-2-yl}-1-(cyclopropylmethyl)-1H-indol-6-yl)-N,N-dimethylbenzamide]	320
COc1cc(C(=O)N2CCC[C@@H](N)C2)cn2nc(-c3cc4ccc(-c5ccc(NS(C)(=O)=O)cc5)cc4n3CC3CC3)c(C)c12 [Example 231, N-[4-(2-{6-[(3R)-3-Aminopiperidine-1-carbonyl]-4-methoxy-3-methylpyrazolo[1,5-a]pyridin-2-yl}-1-(cyclopropylmethyl)-1H-indol-6-yl)phenyl]methanesulfonamide]	460
COc1cc(C(=O)N2CCC[C@@H](N)C2)cn2nc(-c3cc4ccc(-c5cccc(CNC(C)=O)c5)cc4n3CC3CC3)c(C)c12 [Example 232, N-{[3-(2-{6-[(3R)-3-Aminopiperidine-1-carbonyl]-4-methoxy-3-methylpyrazolo[1,5-a]pyridin-2-yl}-1-(cyclopropylmethyl)-1H-indol-6-yl)phenyl]methyl}acetamide]	900
COc1cc(C(=O)N2CCC[C@@H](N)C2)cn2nc(-c3cc4ccc(-c5ccccc5CO)cc4n3CC3CC3)c(C)c12 [Example 233, [2-(2-{6-[(3R)-3-Aminopiperidine-1-carbonyl]-4-methoxy-3-methylpyrazolo[1,5-a]pyridin-2-yl}-1-(cyclopropylmethyl)-1H-indol-6-yl)phenyl]methanol]	620
COc1cc(C(=O)N2CCC[C@@H](N)C2)cn2nc(-c3cc4ccc(-c5ccc(CNS(C)(=O)=O)cc5)cc4n3CC3CC3)c(C)c12 [Example 234, N-{[4-(2-{6-[(3R)-3-Aminopiperidine-1-carbonyl]-4-methoxy-3-methylpyrazolo[1,5-a]pyridin-2-yl}-1-(cyclopropylmethyl)-1H-indol-6-yl)phenyl]methyl}methanesulfonamide]	1140
COc1cc(C(=O)N2CCC[C@@H](N)C2)cn2nc(-c3cc4ccc(-c5cccc6[nH]ncc56)cc4n3CC3CC3)c(C)c12 [Example 238, (3R)-1-{2-[1-(Cyclopropylmethyl)-6-(1H-indazol-4-yl)-1H-indol-2-yl]-4-methoxy-3-methylpyrazolo[1,5-a]pyridine-6-carbonyl}piperidin-3-amine]	420
COc1cc(C(=O)N2CCC[C@@H](N)C2)cn2nc(-c3cc4ccc(-c5cc(F)c6[nH]c(=O)ccc6c5C)cc4n3CC3CC3)c(C)c12 [Example 239, 6-(2-{6-[(3R)-3-Aminopiperidine-1-carbonyl]-4-methoxy-3-methylpyrazolo[1,5-a]pyridin-2-yl}-1-(cyclopropylmethyl)-1H-indol-6-yl)-8-fluoro-5-methyl-1,2-dihydroquinolin-2-one]	70
COc1cc(C(=O)N2C[C@H](N)C[C@@H](F)C2)cn2nc(-c3cc4ccc(N5CCC(C(=O)N(C)C)CC5)cc4n3CC3CC3)c(C)c12 [Example 242, 1-(2-{6-[(3R,5R)-3-Amino-5-fluoropiperidine-1-carbonyl]-4-methoxy-3-methylpyrazolo[1,5-a]pyridin-2-yl}-1-(cyclopropylmethyl)-1H-indol-6-yl)-N,N-dimethylpiperidine-4-carboxamide]	90
COc1cc(C(=O)N2C[C@H](N)C[C@@H](F)C2)cn2nc(-c3cc4ccc(N5CCC(N(C)C(C)=O)CC5)cc4n3CC3CC3)c(C)c12 [Example 244, N-[1-(2-{6-[(3R,5R)-3-Amino-5-fluoropiperidine-1-carbonyl]-4-methoxy-3-methylpyrazolo[1,5-a]pyridin-2-yl}-1-(cyclopropylmethyl)-1H-indol-6-yl)piperidin-4-yl]-N-methylacetamide]	70
COc1cc(C(=O)N2C[C@H](N)C[C@@H](F)C2)cn2nc(-c3cc4ccc(N5CCC(N(C)S(C)(=O)=O)CC5)cc4n3CC3CC3)c(C)c12 [Example 246, N-[1-(2-{6-[(3R,5R)-3-Amino-5-fluoropiperidine-1-carbonyl]-4-methoxy-3-methylpyrazolo[1,5-a]pyridin-2-yl}-1-(cyclopropylmethyl)-1H-indol-6-yl)piperidin-4-yl]-N-methylmethanesulfonamide]	130

Continued by falling IC50, values first:

IC50 [nM]	Compound
4120	COc1cc(C(=O)N2C[C@H](N)C[C@@H](F)C2)cn2nc(-c3cc4ccc(N5CCC(N(C)C(C)=O)CC5)cc4n3CC3CC3)c(C)c12 [Example 243, N-[1-(2-{6-[(3R,5R)-3-Amino-5-fluoropiperidine-1-carbonyl]-4-methoxy-3-methylpyrazolo[1,5-a]pyridin-2-yl}-1-(cyclopropylmethyl)-1H-indol-6-yl)piperidin-4-yl]-N-methylacetamide]
1070	COc1cc(C(=O)N2C[C@H](N)C[C@@H](F)C2)cn2nc(-c3cc4ccc(-c5ccc(CNS(C)(=O)=O)cc5)cc4n3CC3CC3)c(C)c12 [Example 224, N-{[4-(2-{6-[(3R,5R)-3-Amino-5-fluoropiperidine-1-carbonyl]-4-methoxy-3-methylpyrazolo[1,5-a]pyridin-2-yl}-1-(cyclopropylmethyl)-1H-indol-6-yl)phenyl]methyl}methanesulfonamide]
250	COc1cc(C(=O)N2CCC[C@@H](N)C2)cn2nc(-c3cc4ccc(-c5cccc(CNS(C)(=O)=O)c5)cc4n3CC3CC3)c(C)c12 [Example 235, N-{[3-(2-{6-[(3R)-3-Aminopiperidine-1-carbonyl]-4-methoxy-3-methylpyrazolo[1,5-a]pyridin-2-yl}-1-(cyclopropylmethyl)-1H-indol-6-yl)phenyl]methyl}methanesulfonamide]
250	COc1cc(C(=O)N2CCC[C@@H](N)C2)cn2nc(-c3cc4ccc(-c5ccccc5C(N)=O)cc4n3CC3CC3)c(C)c12 [Example 237, 2-(2-{6-[(3R)-3-Aminopiperidine-1-carbonyl]-4-methoxy-3-methylpyrazolo[1,5-a]pyridin-2-yl}-1-(cyclopropylmethyl)-1H-indol-6-yl)benzamide]
180	COc1cc(C(=O)N2CCC[C@@H](N)C2)cn2nc(-c3cc4ccc(-c5ccc(NC(C)=O)nc5)cc4n3CC3CC3)c(C)c12 [Example 240, N-[5-(2-{6-[(3R)-3-Aminopiperidine-1-carbonyl]-4-methoxy-3-methylpyrazolo[1,5-a]pyridin-2-yl}-1-(cyclopropylmethyl)-1H-indol-6-yl)pyridin-2-yl]acetamide]
130	COc1cc(C(=O)N2CCC[C@@H](N)C2)cn2nc(-c3cc4ccc(-c5ccc(C(N)=O)cc5)cc4n3CC3CC3)c(C)c12 [Example 229, 4-(2-{6-[(3R)-3-Aminopiperidine-1-carbonyl]-4-methoxy-3-methylpyrazolo[1,5-a]pyridin-2-yl}-1-(cyclopropylmethyl)-1H-indol-6-yl)benzamide]
120	COc1cc(C(=O)N2C[C@H](N)C[C@@H](F)C2)cn2nc(-c3cc4ccc(N5CC(N(C)S(C)(=O)=O)C5)cc4n3CC3CC3)c(C)c12 [Example 247, N-[1-(2-{6-[(3R,5R)-3-Amino-5-fluoropiperidine-1-carbonyl]-4-methoxy-3-methylpyrazolo[1,5-a]pyridin-2-yl}-1-(cyclopropylmethyl)-1H-indol-6-yl)azetidin-3-yl]-N-methylmethanesulfonamide]
70	COC(=O)N(C)C1CCN(c2ccc3cc(-c4nn5cc(C(=O)N6C[C@H](N)C[C@@H](F)C6)cc(OC)c5c4C)n(CC4CC4)c3c2)CC1 [Example 245, Methyl N-[1-(2-{6-[(3R,5R)-3-amino-5-fluoropiperidine-1-carbonyl]-4-methoxy-3-methylpyrazolo[1,5-a]pyridin-2-yl}-1-(cyclopropylmethyl)-1H-indol-6-yl)piperidin-4-yl]-N-methylcarbamate]
